Measured values: patent EP4775570A1, “CYP11A1 INHIBITOR, PREPARATION METHOD THEREFOR AND USE THEREOF” (Shenzhen Zhongge Biological Technology Co., Ltd., priority 2023, dated 2025)

What was measured:
[1] = PK study, intravenous and oral administration, plasma LC-MS/MS; format: in vivo; settings: both sexes, 5 mg/kg, oral administration of 5 mpk, species not given (ICR mice or SD Rat)
Protocol: ICR mice (male/female, total 6 animals) were assigned to two groups for oral administration and intravenous administration, respectively, with 3 mice in each group. Before administration, the animals were fasted for 10-14 hours, with water available ad lib.
SD Rat (male/female, total 6 animals) were assigned to two groups for oral administration and intravenous administration, respectively, with 3 mice in each group. Before administration, the animals were fasted for 10-14 hours, with water available ad lib.
The compounds to be tested were weighed out in accordance with intended dosage, formulated with vehicles (5% DMSO + 10% Solutol + 85% physiological saline) to dosage form at appropriate concentrations (administered intravenously and orally in rats or mice at a volume of 5 mL/kg and 10 mL/kg, respectively). The dosage form for intravenous injection is a clear solution, and the dosage form for oral administration is a clear solution or homogenous suspension.
Administration to animals was conducted through intravenous injection and oral gavage, and blood samples were collected at 0.033, 0.083, 0.25, 0.5, 1, 2, 4, 8, and 24 hours after intravenous injection, or at 0.083, 0.25, 0.5, 1, 2, 4, 6, 8, and 24 hours after oral administration. After centrifugation of whole blood samples at 4°C and 6,800g for 6 minutes, the upper layers of plasma were stored at -80°C refrigerator before analysis.
The DMSO stock solutions of the substance to be tested were diluted with methanol or acetonitrile solution to serial working solutions and added to blank plasma matrix to formulate samples for standard curve and quality control. An appropriate volume of plasma sample was added with appropriate fold of methanol or acetonitrile containing internal standards, according to response, for protein precipitation. After centrifugation of all samples at 4°C and 18,000g for 10 min, appropriate volumes of supernatant were taken for LC-MS/MS analysis.
Plasma drug concentration-time curves were plotted in accordance with tested concentrations, and pharmacokinetic parameters were calculated based on non-compartmental model using WinNonlin software, including half-life (T1/2), area under the drug concentration-time curve (AUC0-t), clearance rate (CL), steady-state distribution volume (Vss), bioavailability (F), etc.

[2] = tested on: VCaP castration-resistant prostate cancer subcutaneous transplant tumor model; test: In vivo pharmacodynamic study in a VCaP castration-resistant prostate cancer subcutaneous transplant tumor model; set-up: species or system SCID-Beige mice; settings: 30mg/kg BID oral + prednisone 0.6mg/kg QD, castrated tumor-bearing mice, 32 days
Protocol: Animals: experimental male SCID-Beige mice, 6-8-weeks old or 18-22g, provided by Beijing Vital River Laboratory Animal Technology Co., Ltd.
Experiment procedures: all experimental animals were kept within specific-pathogen-free animal barrier facility, and allowed 3 days of adaptation before the experiment began. VCaP tumor cells were in vitro cultured as monolayer in DMEM complete medium (with 10% fetal bovine serum and 1% penicillin & streptomycin) at 37°C in air containing 5% CO2. Tumor cells were routinely passaged 2-3 times a week, and cells in exponential growth phase were collected and counted for tumor cell inoculation. 10x10^6 VCaP tumor cells were resuspended in 0.1ml PBS, thoroughly mixed with 0.1ml matrigel, and then inoculated subcutaneously on the right flank of each mouse to form a tumor. The tumor-bearing mice were allowed to develop to an average tumor volume of around 200mm^3 and underwent castration surgery. The tumor volumes of all mice were measured after one week of castration surgery. Suitable tumor-bearing mice were selected and assigned randomly into the following groups: blank control group, prednisone (0.6mg/kg, QD) group, abiraterone (33.73mg/kg, QD) + prednisone (0.6mg/kg, QD) group, ODM-208 (30mg/kg, BID) + prednisone (0.6mg/kg, QD) group, and the compound of the present disclosure (30mg/kg, BID) + prednisone (0.6mg/kg, QD) group. Animals in blank control group were orally administered with vehicles (0.5%MC+0.5%Tween80 and 0.5%CMCNa), and the animals in other groups were orally administered with corresponding compound. The experiment lasted for 32 days, and during the experiment, the animals in each group were measured for tumor volume and body weight twice a week.

[3] = tested on: testosterone, progesterone, corticosterone; test: LC-MS detection of testosterone, progesterone and corticosterone in mouse tumors and adrenal glands; format: in vivo; settings: mouse tumors and adrenal glands, VCaP model
Excerpt: • Mouse tumors were homogenized using PBS in a 1:5 ratio (tumor weight (g): PBS volume (mL), w/v); • Mouse adrenal glands were homogenized using PBS in a 1:10 ratio (adrenal gland weight (g): PBS volume (mL), w/v); • Standard sample: testosterone (LGC, C17322500), progesterone (MCE, HY-N0437), adrenal ketone (MCE, HY-B1618), and standard solution of test substance.
Experiment procedures: since the three markers, i.e., testosterone, progesterone, and adrenal ketone, are all endogenous substances and present in the blank matrix as well, PBS was alternatively used as matrix in the production of the standard curve.
Testosterone: multiple reaction monitoring (MRM) method was used for detecting the concentrations of testosterone in mouse tumors and adrenal glands. Mass spectrum: AB Sciex Triple Quad 6500+; liquid chromatography: Shimadzu 40A, column: Waters XBridge BEH C18 2.5 µm 2.1*50mm, testosterone ion pair: 289.4/97.2. Both tumor and adrenal tissues were treated with methanol as precipitant and tolbutamide as internal standard for sample pretreatment, with linear range in 50-50,000pg/mL.
Progesterone and corticosterone: multi-reaction detection method (MRM) was used for detecting the concentrations of progesterone and corticosterone in mouse tumors and adrenal glands. Mass spectrum: AB Sciex Triple Quad 6500+; liquid chromatography: Shimadzu 40A, column: Waters XSelect HSS T3 2.5 µm 2.1*50mm, progesterone ion pair: 315.4/97.2, adrenone ion pair: 347.4/121.3. For tumor tissues, acetonitrile was used as precipitant and propranolol diclofenac as internal standard for sample pretreatment, with linear ranges in 0.05-10 ng/mL of progesterone and 0.10-20 ng/mL of corticosterone. For adrenal tissues, methanol was used as precipitant and propranolol diclofenac as internal standard for sample pretreatment, with linear ranges in 5-2,500 ng/mL of progesterone and 5-2,500 ng/mL of corticosterone.

For `CS(=O)(=O)N1CCC(COc2coc(CN3Cc4ccccc4C3)cc2=O)CC1` [ODM-208, reference compound], the AUC [1] was 1310 ng·h/mL, the Cmax [1] was 807 ng/mL and the bioavailability ([1]; read-out: bioavailability (F)) was 59%. The half-life ([1]; read-out: half-life (t1/2) (converted)) was 1.8 h, the “tumor inhibition rate TGI” value [2] was 85% and the “secretion of testosterone, progesterone and corticosterone in tumors and adrenal glands (in words)” value [3] was “significantly inhibits”.
